Results published in patent US20150031655A1, “COMBINATION OF LIVER X RECEPTOR MODULATOR AND ESTROGEN RECEPTOR MODULATOR FOR THE TREATMENT OF AGE-RELATED DISEASES” (UNIVERSITY OF NORTH DAKOTA, priority 2011, published 2015).

What was measured:
[1] = test system: TH; assay: Western blot of TH protein levels in SH-SY5Y neuroblastoma cells; format: cell-based, human; conditions: for TH protein levels / TH expression: 24 h, treatment alone vs control (10 μM 27-OHC, 1 nM estradiol, 10 μM GW3965, 10 μM ECHS)
Protocol: (§1) Human neuroblastoma SH-SY5Y cells were grown in DMEM/F12 medium containing 10% fetal bovine serum (FBS) and 1% antibiotic/antimycotic mix. Cells were maintained at 37° C. in a saturated humidity atmosphere containing 95% air and 5% CO2.
(§2) Treated SH-SY5Y cells were washed with PBS and trypsinized to collect the cells and centrifuged at 5000 g. The pellet was washed again with PBS and homogenized in NE-PER tissue protein extraction reagent (Thermo Scientific, Rockford, Ill.) supplemented with protease and phosphatase inhibitors. Protein concentrations from the cytosolic and nuclear homogenates were determined with BCA protein assay.
(§3) Proteins (10 μg) were separated on SDS-PAGE gels, transferred to a polyvinylidene difluoride membrane (BioRad, Hercules, Calif.), and incubated with the following monoclonal antibodies: anti-TH mouse antibody (1:1000; Sigma Aldrich, Saint Louis, Mo.), anti-α-synuclein mouse antibody (1:500; Chemicon, Temecula, Calif.), anti-ERα rabbit antibody (1:500; Abcam, Cambridge, Mass.), anti-ERβ rabbit antibody (1:200; Upstate, Lake Placid, N.Y.), anti-LXRα rabbit antibody (1:500; Abcam, Cambridge, Mass.), anti-LXRβ mouse antibody (1:500; Abcam, Cambridge, Mass.).
(§4) β-actin and Lamin A were used as a gel loading control for cytosolic homogenates and nuclear homogenates respectively. The blots were developed with enhanced chemiluminescence (Immmun-star HRP chemiluminescent kit, Bio-Rad, Hercules, Calif.). Bands were visualized on a polyvinylidene difluoride membrane and analyzed by LabWorks 4.5 software on a UVP Bioimaging System (Upland, Calif.). Quantification of results was performed by densitometry and the results analyzed as total integrated densitometric values (arbitrary units).

[2] = test system: α-synuclein; assay: Western blot of α-synuclein protein levels in SH-SY5Y cells; format: cell-based, human; conditions: for increase in α-synuclein protein / expression levels / 27-OHC-induced increase in α-synuclein protein levels: 24 h; for 27-OHC-induced increase in α-synuclein protein levels: co-treatment with 10 μM 27-OHC
Protocol: as §1, §2, §3, §4

[3] = molecular target: T1, LXRα (Homo sapiens, UniProt Q13133); assay: Western blot of LXRα levels in the nucleus, SH-SY5Y cells; format: cell-based; conditions: for LXRα protein levels in the nucleus: 24 h, treatment alone vs control; for 27-OHC-induced increase in LXRα in the nucleus: co-treatment with 10 μM 27-OHC
T1 construct: endogenous in cells; host or cells: SH-SY5Y human neuroblastoma cells
T1 sequence (Q13133 1-447): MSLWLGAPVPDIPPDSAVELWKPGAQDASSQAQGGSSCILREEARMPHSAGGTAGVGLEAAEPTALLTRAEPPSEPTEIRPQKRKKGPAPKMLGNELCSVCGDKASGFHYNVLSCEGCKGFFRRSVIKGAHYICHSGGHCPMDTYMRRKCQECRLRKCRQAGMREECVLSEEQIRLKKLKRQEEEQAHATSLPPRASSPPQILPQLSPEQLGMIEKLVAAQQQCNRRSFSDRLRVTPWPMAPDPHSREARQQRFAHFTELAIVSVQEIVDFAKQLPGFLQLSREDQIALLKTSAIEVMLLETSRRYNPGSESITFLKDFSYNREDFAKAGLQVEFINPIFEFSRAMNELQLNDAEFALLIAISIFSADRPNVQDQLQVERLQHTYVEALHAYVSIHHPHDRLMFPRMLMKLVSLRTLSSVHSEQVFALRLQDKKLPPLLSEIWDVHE
Protocol: as §1, §2, §3, §4

[4] = molecular target: T1, LXRα; assay: ChIP, LXRα binding to the LXRE in the α-synuclein promoter; format: cell-based; conditions: SH-SY5Y; for LXRα binding to the LXRE on the α-synuclein promoter: treatment alone vs control
Protocol: as §1
ChIP analysis was performed to evaluate the extent of ERα/ERβ and LXRα/LXRβ binding to the DNA elements in the TH promoter and α-synuclein promoter regions respectively using “SimpleChIP™ Enzymatic Chromatic IP kit” from Cell Signaling (Boston, Mass.).
Briefly, cells from each treatment group (3×10^6 cells) were washed with PBS, trypsinized, centrifuged at 5000 g. The pellet containing the cells was further washed with PBS and cross-linked using 37% formaldehyde for 15 min followed by the addition of glycine solution to cease the cross-linking reaction.
The cells were washed with 4× volumes of 1×PBS and centrifuged at ˜220 g for 5 min. The pellet was resuspended and incubated for 10 min in 5 ml of tissue lysis buffer containing DTT and protease and phosphatase inhibitors. The subsequent steps to isolate the cross-linked chromatin were performed according to the manufacturer's protocol.
The cross-linked chromatin from each sample was apportioned into four equal parts. One quarter of the cross-linked chromatin was set aside as “input.” One quarter of the cross-linked chromatin from each sample was incubated with 5 μg of anti-ERα mouse antibody (Cell Signaling, Boston, Mass.) and 5 μg of anti-ERβ rabbit antibody (Upstate, Bedford, Mass.), or 5 μg of anti-LXRα rabbit antibody (Abcam, Cambridge, Mass.) and 5 μg of anti-LXRβ mouse antibody (Abcam, Cambridge, Mass.), while the remaining one quarter of the cross-linked chromatin from each sample was incubated with 5 μg of normal Rabbit IgG to serve as negative control. […]
The crude DNA extract was eluted and then washed several times with wash buffer containing ethanol (provided with the kit) followed by purification with the use of DNA spin columns provided by the manufacturer. […] The DNA fragment size was determined by electrophoresis on a 1.2% agarose FlashGel^R system (Lonza, Rockland, Me.).
The relative abundance of the ERα or ERβ antibody precipitated chromatin containing the ERE in the TH promoter region and LXRα or LXRβ antibody precipitated chromatin containing the LXRE in the α-synuclein promoter region was determined by qPCR using an iQ SYBR Green Supermix kit following the manufacturer's instructions (BioRad, Hercules, Calif.) and sequence specific primers (See Table 1 above). […] The fold enrichment of the ERE in the TH promoter region and LXRE in the α-synuclein promoter region was calculated using the ΔΔCt method (K. J. Livak et al., Methods, 25, 402 (2001)) which normalizes ChIP Ct values of each sample to the % input and background.

LXRα protein levels in the nucleus [3] | LXRα binding to the LXRE on the α-synuclein promoter [4] | 27-OHC-induced increase in LXRα in the nucleus [3] | LXRα binding to the LXRE in the α-synuclein promoter ([4]; in combination with 27-OHC) | SMILES | TH protein levels / TH expression [1] | increase in α-synuclein protein / expression levels ([2]; treatment alone vs control) | effect of estradiol on 27-OHC-induced decrease in TH expression ([1]; ECHS added to 27-OHC+estradiol) | TH expression ([1]; in combination with estradiol) | 27-OHC-induced increase in α-synuclein protein levels [2] | basal α-synuclein expression levels ([2]; treatment alone vs control)
reduced | did not significantly attenuate | significantly attenuated | – | CC(C)CCC[C@@H](C)[C@H]1CC[C@H]2[C@@H]3C[C@@H]4O[C@@]45C[C@@H](OS(=O)(=O)O)CC[C@]5(C)[C@H]3CC[C@]12C [ECHS, 5α,6α-epoxycholesterol-3-sulfate] | no effect | – | does not alter | no effect | significantly attenuated | does not produce any effect
more pronounced increase | did not elicit any increase | to the same extent | did not elicit any increase | Cl.O=C(O)Cc1cccc(OCCCN(Cc2cccc(C(F)(F)F)c2Cl)CC(c2ccccc2)c2ccccc2)c1 [GW3965, 3-[3-[N-(2-Chloro-3-trifluoromethylbenzyl)-(2,2-diphenylethyl)amino]propyloxy]phenylacetic acid hydrochloride] | no effect | 3 fold | – | – | accentuates | –

SMILES | LXRα protein levels in the nucleus [3] | LXRα binding to the LXRE on the α-synuclein promoter [4] | 27-OHC-induced increase in LXRα in the nucleus [3] | LXRα binding to the LXRE in the α-synuclein promoter ([4]; in combination with 27-OHC) | TH protein levels / TH expression [1] | increase in α-synuclein protein / expression levels ([2]; treatment alone vs control) | effect of estradiol on 27-OHC-induced decrease in TH expression ([1]; ECHS added to 27-OHC+estradiol) | TH expression ([1]; in combination with estradiol) | 27-OHC-induced increase in α-synuclein protein levels [2] | basal α-synuclein expression levels ([2]; treatment alone vs control)
C[C@@H](CO)CCC[C@@H](C)[C@H]1CC[C@H]2[C@@H]3CC=C4C[C@@H](O)CC[C@]4(C)[C@H]3CC[C@]12C [27-OHC, 27-hydroxycholesterol] | increases | no significant augmentation | – | – | significant decrease | 2.3 fold | – | – | – | –
